This passage reports IC50 results from patent publication US20240415819A1, “MACROCYCLIC COMPOUNDS AS PROTEASOME SUBUNIT BETA TYPE-5 INHIBITORS” (Lead Discovery Center GmbH, priority 2021, published 2024).

Assay [1] has as its target T1, β5 subunit of the human constitutive proteasome (CPS) (Homo sapiens, UniProt P28074).
T1 construct: purchased Boston Biochem E-360
Put plainly: β5 inhibition assay, human constitutive proteasome (Suc-LLVY-AMC). The class given is biochemical. Particulars: IC50 class, Suc-LLVY-AMC substrate. As for the experimental part: The enzymatic activity of the β5 subunit of the human constitutive proteasome (CPS) is analyzed. In another assay, which differs from the assay of the human constitutive proteasome only in using the human immunoproteasome (IPS) the enzymatic activity of the β5 subunit of the human immunoproteasome (IPS) is analyzed. […] Inhibition is indicated as IC50 [nM] (“-”=not measured).

Assay [2] has as its target T2, β5 subunit of the human immunoproteasome (IPS) (Homo sapiens, UniProt P28062).
T2 construct: purchased Boston Biochem E-370
Description: β5 inhibition assay, human immunoproteasome (Suc-LLVY-AMC). The class given is biochemical. Particulars: IC50 class, Suc-LLVY-AMC substrate. The gist of the method: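 β5 activity is read as liberated AMC fluorescence (355/460 nm) after 4 h dark reaction at RT with 22.6 μM Suc-LLVY-AMC, stopped by 1 μM bortezomib. Beforehand, 1 nM human IPS and compound sat 10 min at RT in HEPES pH 7.5 buffer containing NaCl, 0.02% SDS and DTT.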

Assay [3] relates to A549 (human lung carcinoma cell line). Description: Glo assay of A549 cells (Table 3; ProteasomeGlo plating scheme). The class given is cell-based. Particulars: Homo sapiens; A549 cells; read-out: PGLo A549. The gist of the method:
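Luminescent read-out of cellular chymotrypsin-like proteasome activity: cells exposed to compound 105 min at 37° C., 5% CO2, then given Suc-LLVY-Glo reagent, shaken 2-5 min and kept dark 10-15 min before reading. Values are IC50 [nM].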

Assay [4] concerns Hs 746T (human gastric carcinoma cell line). Put plainly: 48 hr CTG viability assay, Hs 746T. Particulars: Hs746T, 48 hr CTG, read-out: Hs 746T IC50. The class given is cell-based. The gist of the method:
(§1)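 Growth inhibition by compound over 48 h; IC50 (nM) derived from duplicate CellTiter-Glo luminescence readings across 0.0015–10 uM.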

Assay [5] concerns MM1 S (B lymphoblast cell line). Description: 48 hr CTG viability assay, MM1S. The class given is cell-based. Particulars: Homo sapiens, 48 hr CTG, read-out: MM1S IC50. The gist of the method: as §1
The subject of assay [6] is RPMI 8226 (B lymphocyte cell line, multiple myeloma). Put plainly: 48 hr CTG viability assay, RPMI 8226. The class given is cell-based. The note with it: Homo sapiens, RPMI-8226; 48 hr CTG; read-out: RPMI-8226 IC50. The gist of the method:
as §1

`Cc1ccc2cc1CNC(=O)[C@H](CCc1ccccc1)NC(=O)[C@@H](NC(=O)C(C)(C)CO)CCC(=O)NCCCCO2` [Compound 726, 3-hydroxy-2,2-dimethyl-N-((11S,14S)-1^4_ methyl-8,12,15-trioxo-1^4-phenethyl-2-oxa-7,13,16-triaza-1(1,3)-benzenacycloheptadecaphane-11-yl)propanamide]: the IC50 is less than 100 nM in assay [1]; less than 100 nM in assay [2]; 100 to 500 nM in assay [3]; 500 to 1000 nM in assay [4]; 100 to 500 nM in assay [5]; 100 to 500 nM in assay [6].

Consider `Cc1ccc2cc1CNC(=O)[C@H](CCc1ccccc1)NC(=O)[C@@H](NCC(C)(C)N)CC(=O)N1CCCC(CCO2)C1` (stereo partly drawn) [Compound 727, (9S,12S)-12-((2-amino-2-methylpropyl)amino)-5^4-methyl-9-phenethyl-4-oxa-7,10-diaza-1(3,1)-piperidina-5(1,3)-benzenacyclotetradecaphane-8,11,14-trione], for which the IC50 in assay [1] was less than 100 nM; in assay [2], less than 100 nM; in assay [3] it was 100 to 500 nM; in assay [4], 1000 to 5000 nM; in assay [5], 500 to 1000 nM; in assay [6], 100 to 500 nM.

Turning to `Cc1ccc2cc1CNC(=O)[C@H](CCc1ccccc1)NC(=O)[C@@H](N1CCCC1=O)CC(=O)N1CCCC(CCO2)C1` (stereo partly drawn) [Compound 728, (9S,12S)-5^4-methyl-12-(2-oxopyrrolidin-1-yl)-9-phenethyl-4-oxa-7,10-diaza-1(3,1)-piperidina-5(1,3)-benzenacyclotetradecaphane-8,11,14-trione], the IC50 lay in the range of 100 to 500 nM in assay [1]; 100 to 500 nM in assay [2]; 500 to 1000 nM in assay [3]; 1000 to 5000 nM in assay [4]; 100 to 500 nM in assay [5]; 100 to 500 nM in assay [6].

In the case of `Cc1ccc2cc1CNC(=O)[C@H](CCc1ccncc1)NC(=O)[C@@H](NC(=O)C1(F)CCNCC1)CC(=O)N1CCCC(CCO2)C1` (stereo partly drawn) [Compound 729, 4-fluoro-N-((12S)-5^4-methyl-8,11,14-trioxo-9-(2-(pyridin-4-yl)ethyl)-4-oxa-7,10-diaza-1(3,1)-piperidina-5(1,3)-benzenacyclotetradecaphane-12-yl)piperidine-4-carboxamide], the IC50 in assay [1] is less than 100 nM; in assay [2] it was less than 100 nM; in assay [3], less than 100 nM; in assay [4] it was 100 to 500 nM; in assay [5], 100 to 500 nM; in assay [6] it was 100 to 500 nM.

With `Cc1ccc2cc1CNC(=O)[C@H](CCc1ccccc1)NC(=O)[C@@H](N1CCCC1)CC(=O)N1CCCC(CCO2)C1` (stereo partly drawn) [Compound 731, (9S,12S)-5^4-methyl-9-phenethyl-12-(pyrrolidin-1-yl)-4-oxa-7,10-diaza-1(3,1)-piperidina-5(1,3)-benzenacyclotetradecaphane-8,11,14-trione], the IC50 in assay [1] is 100 to 500 nM; in assay [2], less than 100 nM; in assay [3], 1000 to 5000 nM; in assay [4], 1000 to 5000 nM; in assay [5], 100 to 500 nM; in assay [6], 500 to 1000 nM.

As to `Cc1ccc2cc1CNC(=O)[C@H](CCc1ccccc1)NC(=O)[C@@H](N1CCCCC1=O)CC(=O)N1CCCC(CCO2)C1` (stereo partly drawn) [Compound 734, (9S,12S)-5^4-methyl-12-(2-oxopiperidin-1-yl)-9-phenethyl-4-oxa-7,10-diaza-1(3,1)-piperidina-5(1,3)-benzenacyclotetradecaphane-8,11,14-trione], the IC50 was 1000 to 5000 nM in assay [1]; 100 to 500 nM in assay [2]; 1000 to 5000 nM in assay [3]; more than 5000 nM in assay [4]; 1000 to 5000 nM in assay [5]; 1000 to 5000 nM in assay [6].

On to `Cc1ccc2cc1CNC(=O)[C@H](CCc1ccccc1)NC(=O)[C@@H](NC(=O)C(C)(C)CO)CC(=O)NCCCO2` [Compound 736, 3-hydroxy-2,2-dimethyl-N-((9S,12S)-1^4_ methyl-7,10,13-trioxo-12-phenethyl-2-oxa-6,11,14-triaza-1(1,3)-benzenacyclopentadecaphane-9-yl)propanamide], for which the IC50 in assay [1] is 1000 to 5000 nM; in assay [2] it was 1000 to 5000 nM; in assay [3], more than 5000 nM; in assay [4], more than 5000 nM; in assay [5], 1000 to 5000 nM; in assay [6], 1000 to 5000 nM.

For `Cc1ccc2cc1CNC(=O)[C@H](CCc1ccncc1)NC(=O)[C@@H](NC(=O)Cc1ccccc1F)CC(=O)N1CCCC(CCO2)C1` (stereo partly drawn) [Compound 737, 2-(2-fluorophenyl)-N-((9S,12S)-5^4-methyl-8,11,14-trioxo-9-(2-(pyridin-4-yl)ethyl)-4-oxa-7,10-diaza-1(3,1)-piperidina-5(1,3)-benzenacyclotetradecaphane-12-yl)acetamide], the IC50 in assay [1], in assay [2], in assay [3], in assay [4], in assay [5] and in assay [6] was less than 100 nM in each case.

Consider `Cc1ccc2cc1CNC(=O)[C@H](CCN1C[C@@H]3C[C@H]1CO3)NC(=O)[C@@H](NC(=O)Cc1cn3ccsc3n1)CC(=O)N1CCCC(CCO2)C1` [Compound 739, N-((9S,12S)-9-(2-((1S,4S)-2-oxa-5-azabicyclo[2.2.1]heptan-5-yl)ethyl)-5^4-methyl-8,11,14-trioxo-4-oxa-7,10-diaza-1(3,1)-piperidina-5(1,3)-benzenacyclotetradecaphane-12-yl)-2-(imidazo[2,1-b]thiazol-6-yl)acetamide], for which the IC50 in assay [1] was less than 100 nM; in assay [2], less than 100 nM; in assay [3] it was less than 100 nM; in assay [4] it was 100 to 500 nM; in assay [5], less than 100 nM; in assay [6], less than 100 nM.

Regarding `Cc1cn([C@H]2CC(=O)N3CCCC(CCOc4ccc(C)c(c4)CNC(=O)[C@H](CCc4ccccc4)NC2=O)C3)nn1` (stereo partly drawn) [Compound 740, (9S,12S)-5^4-methyl-12-(4-methyl-1H-1,2,3-triazol-1-yl)-9-phenethyl-4-oxa-7,10-diaza-1(3,1)-piperidina-5(1,3)-benzenacyclotetradecaphane-8,11,14-trione], the IC50 was less than 100 nM in assay [1]; less than 100 nM in assay [2]; 100 to 500 nM in assay [3]; 1000 to 5000 nM in assay [4]; 100 to 500 nM in assay [5]; 100 to 500 nM in assay [6].
